How the values were obtained:
[1] = In vitro peroxyl radical scavenging assay (AAPH / 5-/6-carboxyfluorescein); conditions: 25 μg/mL; AAPH 2 mM
Method: Peroxyl radical scavenging activity was examined by adding proanthocyanidin to a peroxyl radical generating system (Makrigiorgos et al., “Novel Fluorescein-Based Flow Cytometric Method for Detection of Lipid Peroxidation,” Free Rad. Biol. Med., 22:93-100 (1997)). Peroxyl radicals were generated by dissolving 2,2′-azobis (2-amidinopropane) dihydrochloride (AAPH) in phosphate buffered saline (PBS) at 37° C. Scavenging activity of proanthocyanidin was compared with trolox (100 μM), a known peroxyl radical scavenger.

[2] = In vitro hydroxyl radical scavenging assay (γ-irradiated coumarin-3-carboxylic acid); conditions: 1 mM; 10^-5 M CCA, γ-irradiation
Method: Aqueous solution of coumarin-3-carboxylic acid (CCA) was diluted in PBS buffer, pH 7.4 to give a final concentration of 10^−5 M. Polymethylmethacrylate cuvettes containing 2.5 mL CCA solution were irradiated with ^137Cs γ-ray (dose rate 1.14 Gy/min) (MDS Nordian., Ontario, Canada) at room temperature. […] Fluorescence was measured at room temperature with a Perkin Elmer LS 50 fluorimeter (excitation 400 nm, emission 450 nm) (Collins et al., “Coumarin Chemical Dosimeter for Radiation Therapy,” Med. Phys., 21: 1741-1747 (1994)). […] The scavenging activity of the proanthocyanidin extract was compared against 1 mM DMSO.

With `Cc1c(C)c2c(c(C)c1O)CCC(C)(C(=O)O)O2` (centres unmarked) [trolox] the “peroxyl radical scavenging activity relative to proanthocyanidin 10 μg/mL” value [1] was “comparable”.

For `C[S+](C)[O-]` [DMSO, dimethyl sulfoxide], the “induction of 7-OH-CCA formation (hydroxyl radical scavenging)” value [2] was “reduced the induction of 7-OH-CCA formation”.
